Source: patent publication US4051237A, “Glycopeptide antibiotics Bu-2231 A and B and process for producing same” (priority 1975, dated 1977)
Values after ≈ are worked out from the molar mass of the structure shown.

Assays:
K. pneumoniae A20680 = assay: MIC by two-fold agar dilution; type: cell-based; settings: Mueller-Hinton agar, unit assumed
E. coli A20732 = assay: MIC by two-fold agar dilution; type: cell-based; settings: Mueller-Hinton agar, unit assumed
C. albicans IAM 4888 = assay: MIC by two-fold agar dilution; type: cell-based; settings: Ca-1 C. albicans IAM 4888; sabouraud agar; unit assumed
S. cerevisiae IAM 4009 = assay: MIC by two-fold agar dilution; type: cell-based; settings: Sc-2 S. cerevisiae IAM 4009; sabouraud agar; unit assumed
B. subtilis PCI-219 = assay: MIC by two-fold agar dilution; type: cell-based; settings: Mueller-Hinton agar, unit assumed
[1] = tested on: Mycobacterium ranae, ATCC110; assay: MIC by two-fold agar dilution; type: cell-based; settings: Medium #1001, unit assumed
K. pneumoniae D11 = assay: MIC by two-fold agar dilution; type: cell-based; settings: Mueller-Hinton agar, unit assumed
A. niger var Tieghem = assay: MIC by two-fold agar dilution; type: cell-based; settings: An-1 A. niger var Tieghem; sabouraud agar; unit assumed
C. neoformans IAM 4514 = assay: MIC by two-fold agar dilution; type: cell-based; settings: Cn-2 C. neoformans IAM 4514; sabouraud agar; unit assumed
M. flavus D12 = assay: MIC by two-fold agar dilution; type: cell-based; settings: Mueller-Hinton agar, unit assumed
C. neoformans (Cn-1) = assay: MIC by two-fold agar dilution; type: cell-based; settings: Cn-1 C. neoformans; sabouraud agar; unit assumed
P. vulgaris A9436 = assay: MIC by two-fold agar dilution; type: cell-based; settings: Mueller-Hinton agar, unit assumed
P. aeruginosa A9930 = assay: MIC by two-fold agar dilution; type: cell-based; settings: Mueller-Hinton agar, unit assumed
S. aureus A20239 = assay: MIC by two-fold agar dilution; type: cell-based; settings: Mueller-Hinton agar, unit assumed
S. marcescens A20333 = assay: MIC by two-fold agar dilution; type: cell-based; settings: Mueller-Hinton agar, unit assumed
T. mentagrophytes D-155 = assay: MIC by two-fold agar dilution; type: cell-based; settings: Tm-1 T. mentagrophytes D-155; sabouraud agar; unit assumed
C. lunata ATCC 13432 = assay: MIC by two-fold agar dilution; type: cell-based; settings: Cl-1 C. lunata ATCC 13432; sabouraud agar; unit assumed
S. aureus BX-1633,A9606 = assay: MIC by two-fold agar dilution; type: cell-based; settings: Mueller-Hinton agar, unit assumed
S. marcescens A20019 = assay: MIC by two-fold agar dilution; type: cell-based; settings: Mueller-Hinton agar, unit assumed
T. asteroides = assay: MIC by two-fold agar dilution; type: cell-based; settings: Ta-1 T. asteroides; sabouraud agar; unit assumed
P. aeruginosa A 9923 = assay: MIC by two-fold agar dilution; type: cell-based; settings: Mueller-Hinton agar, unit assumed
Mycobacterium phlei, D88 = assay: MIC by two-fold agar dilution; type: cell-based; settings: Medium #1001, unit assumed
A. fumigatus IAM 2530 = assay: MIC by two-fold agar dilution; type: cell-based; settings: Af-1 A. fumigatus IAM 2530; sabouraud agar; unit assumed
P. stuartii A20734 = assay: MIC by two-fold agar dilution; type: cell-based; settings: Mueller-Hinton agar, unit assumed
C. krusei IAM 4489 = assay: MIC by two-fold agar dilution; type: cell-based; settings: Ck-1 C. krusei IAM 4489; sabouraud agar; unit assumed
Verticillium sp. = assay: MIC by two-fold agar dilution; type: cell-based; settings: Vx-1 Verticillium sp.; sabouraud agar; unit assumed
[2] = tested on: C. albicans #520 Yale A9540; assay: MIC by two-fold agar dilution; type: cell-based; settings: Ca-4 C. albicans #520 Yale A9540; sabouraud agar; unit assumed
P morganii A9553 = assay: MIC by two-fold agar dilution; type: cell-based; settings: Mueller-Hinton agar, unit assumed
Hormodendrum sp. = assay: MIC by two-fold agar dilution; type: cell-based; settings: Hy-1 Hormodendrum sp.; sabouraud agar; unit assumed
B. sphaericus #122 = assay: MIC by two-fold agar dilution; type: cell-based; settings: Mueller-Hinton agar, unit assumed
C. krusei #96 A15052 = assay: MIC by two-fold agar dilution; type: cell-based; settings: Ck-2 C. krusei #96 A15052; sabouraud agar; unit assumed
P. citrinum IAM 7008 = assay: MIC by two-fold agar dilution; type: cell-based; settings: Pt-1 P. citrinum IAM 7008; sabouraud agar; unit assumed
C. albicans Nystatin-R = assay: MIC by two-fold agar dilution; type: cell-based; settings: Ca-2 C. albicans Nystatin-R; sabouraud agar; unit assumed
P. rettgeri A15167 = assay: MIC by two-fold agar dilution; type: cell-based; settings: Mueller-Hinton agar, unit assumed
E. coli NIHJ = assay: In vivo activity in experimental mice infection
Experimental: The in vivo activity of Bu-2231 complex was evaluated in experimental mice infections against S. aureus Smith and E. coli NIHJ. Bleomycin was tested comparatively as a reference antibiotic.
The in vivo activty of the individual components of Bu-2231 in each of the copper-free and copper complex forms was also determined in E. coli infection.

M. canis D-51 = assay: MIC by two-fold agar dilution; type: cell-based; settings: Mc-1 M. canis D-51; sabouraud agar; unit assumed
P. aeruginosa H9, D113 = assay: MIC by two-fold agar dilution; type: cell-based; settings: Mueller-Hinton agar, unit assumed
B. anthracis 115 = type: cell-based; settings: Mueller-Hinton agar, unit assumed
E. coli K-12 A9632 = assay: MIC by two-fold agar dilution; type: cell-based; settings: Mueller-Hinton agar, unit assumed
K. pneumoniae A9678 = assay: MIC by two-fold agar dilution; type: cell-based; settings: Mueller-Hinton agar, unit assumed
E. coli Juhl A15119 = assay: MIC by two-fold agar dilution; type: cell-based; settings: Mueller-Hinton agar, unit assumed

Q: What does the source list for Bleomycin [reference compound]?
A: MIC (K. pneumoniae A20680): > 100 µg/mL; MIC (E. coli A20732): 1.6 µg/mL; MIC (C. albicans IAM 4888): 12.5 µg/mL; MIC (S. cerevisiae IAM 4009): 0.4 µg/mL; MIC (B. subtilis PCI-219): < 0.0063 µg/mL; MIC [1]: 0.8 µg/mL; MIC (K. pneumoniae D11): 0.2 µg/mL; MIC (A. niger var Tieghem): 0.4 µg/mL; MIC (C. neoformans IAM 4514): 1.6 µg/mL; MIC (M. flavus D12): 50 µg/mL; MIC (C. neoformans (Cn-1)): 1.6 µg/mL; MIC (P. vulgaris A9436): 6.3 µg/mL; MIC (P. aeruginosa A9930): > 100 µg/mL; MIC (S. aureus A20239): 12.5 µg/mL; MIC (S. marcescens A20333): > 100 µg/mL; MIC (T. mentagrophytes D-155): > 100 µg/mL; MIC (C. lunata ATCC 13432): 0.1 µg/mL; MIC (S. aureus BX-1633,A9606): 6.3 µg/mL; MIC (S. marcescens A20019): > 100 µg/mL; MIC (T. asteroides): > 100 µg/mL; MIC (P. aeruginosa A 9923): > 100 µg/mL; MIC (Mycobacterium phlei, D88): 0.2 µg/mL; MIC (A. fumigatus IAM 2530): 0.8 µg/mL; MIC (P. stuartii A20734): > 100 µg/mL; MIC (C. krusei IAM 4489): 12.5 µg/mL; MIC (Verticillium sp.): 6.3 µg/mL; MIC [2]: > 100 µg/mL; MIC (P morganii A9553): > 100 µg/mL; MIC (Hormodendrum sp.): 0.8 µg/mL; MIC (B. sphaericus #122): 6.3 µg/mL; MIC (C. krusei #96 A15052): 3.1 µg/mL; MIC (P. citrinum IAM 7008): > 100 µg/mL; MIC (C. albicans Nystatin-R): 12.5 µg/mL; MIC (P. rettgeri A15167): > 100 µg/mL; PD50 (median protective dose) (E. coli NIHJ; Table 11 second part, E. coli NIHJ infection, mice, sc): 2.55 mg/kg; In vivo activity, E. coli NIHJ infection (x/5 mice) (E. coli NIHJ; Table 11 second part, dose (sc) 0.13 mg/kg): 0/5; In vivo activity, E. coli NIHJ infection (x/5 mice) (E. coli NIHJ; Table 11 second part, dose (sc) 0.5 mg/kg): 1/5; In vivo activity, E. coli NIHJ infection (x/5 mice) (E. coli NIHJ; Table 11 second part, dose (sc) 2 mg/kg): 1/5; In vivo activity, E. coli NIHJ infection (x/5 mice) (E. coli NIHJ; Table 11 second part, dose (sc) 8 mg/kg): 5/5; MIC (M. canis D-51): > 100 µg/mL; MIC (P. aeruginosa H9, D113): > 100 µg/mL; MIC (B. anthracis 115): 12.5 µg/mL; MIC (E. coli K-12 A9632): 0.8 µg/mL; MIC (K. pneumoniae A9678): 6.3 µg/mL; MIC (E. coli Juhl A15119): 1.6 µg/mL

Q: With `Cc1c(N)nc([C@H](CC(N)=O)NC[C@H](N)C(N)=O)nc1C(=O)N[C@H](C(=O)N[C@H](C)[C@@H](O)CC(=O)N[C@H](C(=O)NC(O[C@@H]1O[C@@H](C)[C@@H](N)[C@@H](O)[C@H]1O)C(O)c1nc(-c2nc(C(=O)NCCCC(N)CC(=O)NCCCNCCCCN)cs2)cs1)[C@@H](C)O)[C@H](O[C@@H]1O[C@@H](CO)[C@@H](O)[C@H](O)[C@@H]1O[C@H]1O[C@H](CO)[C@@H](O)[C@H](OC(N)=O)[C@@H]1O)c1c[nH]cn1` (stereo partly shown) [Bu-2231 A Cu-free] as the molecule, how does the MIC (K. pneumoniae A20680) read?
A: 6.3 µg/mL (≈ 3.64 µM)

Q: What about the MIC (E. coli A20732) of the same molecule?
A: 0.05 µg/mL (≈ 0.0289 µM)

Q: And the MIC (C. albicans IAM 4888)?
A: 0.8 µg/mL (≈ 0.462 µM)

Q: And the MIC (S. cerevisiae IAM 4009)?
A: 0.4 µg/mL (≈ 0.231 µM)

Q: What about the MIC (B. subtilis PCI-219) of the same molecule?
A: < 0.0063 µg/mL

Q: And the MIC [1]?
A: 0.1 µg/mL (≈ 0.0577 µM)

Q: What about the MIC (K. pneumoniae D11) of the same molecule?
A: < 0.0063 µg/mL

Q: And the MIC (A. niger var Tieghem)?
A: 0.2 µg/mL (≈ 0.115 µM)

Q: And the MIC (C. neoformans IAM 4514)?
A: 0.4 µg/mL (≈ 0.231 µM)

Q: And the MIC (M. flavus D12)?
A: 0.2 µg/mL (≈ 0.115 µM)

Q: What about the MIC (C. neoformans (Cn-1)) of the same molecule?
A: 0.4 µg/mL (≈ 0.231 µM)

Q: And the MIC (P. vulgaris A9436)?
A: 0.2 µg/mL (≈ 0.115 µM)

Q: And the MIC (P. aeruginosa A9930)?
A: 0.4 µg/mL (≈ 0.231 µM)

Q: And the MIC (S. aureus A20239)?
A: 0.2 µg/mL (≈ 0.115 µM)

Q: And the MIC (S. marcescens A20333)?
A: 0.2 µg/mL (≈ 0.115 µM)

Q: And the MIC (T. mentagrophytes D-155)?
A: 12.5 µg/mL (≈ 7.22 µM)

Q: And the MIC (C. lunata ATCC 13432)?
A: 0.8 µg/mL (≈ 0.462 µM)

Q: And the MIC (S. aureus BX-1633,A9606)?
A: 0.2 µg/mL (≈ 0.115 µM)

Q: What about the MIC (S. marcescens A20019) of the same molecule?
A: 0.4 µg/mL (≈ 0.231 µM)

Q: What about the MIC (T. asteroides) of the same molecule?
A: 3.1 µg/mL (≈ 1.79 µM)

Q: And the MIC (P. aeruginosa A 9923)?
A: 50 µg/mL (≈ 28.9 µM)

Q: What about the MIC (Mycobacterium phlei, D88) of the same molecule?
A: 0.05 µg/mL (≈ 0.0289 µM)

Q: And the MIC (A. fumigatus IAM 2530)?
A: 0.8 µg/mL (≈ 0.462 µM)

Q: And the MIC (P. stuartii A20734)?
A: 0.4 µg/mL (≈ 0.231 µM)

Q: What about the MIC (C. krusei IAM 4489) of the same molecule?
A: 0.8 µg/mL (≈ 0.462 µM)

Q: And the MIC (Verticillium sp.)?
A: 3.1 µg/mL (≈ 1.79 µM)

Q: And the MIC [2]?
A: 3.1 µg/mL (≈ 1.79 µM)

Q: And the MIC (P morganii A9553)?
A: 0.4 µg/mL (≈ 0.231 µM)

Q: What about the MIC (Hormodendrum sp.) of the same molecule?
A: 0.8 µg/mL (≈ 0.462 µM)

Q: What about the MIC (B. sphaericus #122) of the same molecule?
A: < 0.0063 µg/mL

Q: And the MIC (C. krusei #96 A15052)?
A: 0.8 µg/mL (≈ 0.462 µM)

Q: What about the MIC (P. citrinum IAM 7008) of the same molecule?
A: 1.6 µg/mL (≈ 0.924 µM)

Q: And the MIC (C. albicans Nystatin-R)?
A: 0.8 µg/mL (≈ 0.462 µM)

Q: What about the MIC (P. rettgeri A15167) of the same molecule?
A: 0.4 µg/mL (≈ 0.231 µM)

Q: What about the PD50 (E. coli NIHJ; Table 12, E. coli NIHJ infection, mice, sc) of the same molecule?
A: 0.024 mg/kg

Q: And the “In vivo activity vs. E. coli NIHJ infection (x/5 mice)” value (E. coli NIHJ; Table 12, dose (sc) 0.008)?
A: 1/5

Q: And the “In vivo activity vs. E. coli NIHJ infection (x/5 mice)” value (E. coli NIHJ; Table 12, dose (sc) 0.03)?
A: 3/5

Q: And the “In vivo activity vs. E. coli NIHJ infection (x/5 mice)” value (E. coli NIHJ; Table 12, dose (sc) 0.13)?
A: 5/5

Q: What about the “In vivo activity vs. E. coli NIHJ infection (x/5 mice)” value (E. coli NIHJ; Table 12, dose (sc) 0.5) of the same molecule?
A: 5/5

Q: What about the “In vivo activity vs. E. coli NIHJ infection (x/5 mice)” value (E. coli NIHJ; Table 12, dose (sc) 2) of the same molecule?
A: 5/5

Q: And the MIC (M. canis D-51)?
A: 3.1 µg/mL (≈ 1.79 µM)

Q: What about the MIC (P. aeruginosa H9, D113) of the same molecule?
A: > 100 µg/mL

Q: What about the MIC (B. anthracis 115) of the same molecule?
A: 0.05 µg/mL (≈ 0.0289 µM)

Q: What about the MIC (E. coli K-12 A9632) of the same molecule?
A: 0.05 µg/mL (≈ 0.0289 µM)

Q: What about the MIC (K. pneumoniae A9678) of the same molecule?
A: 0.2 µg/mL (≈ 0.115 µM)

Q: And the MIC (E. coli Juhl A15119)?
A: 0.1 µg/mL (≈ 0.0577 µM)
